Test results as given in US20250195612A1, “Coversin for use in the treatment of rheumatic diseases” (Volution Immuno Pharmaceuticals SA, priority 2018, published 2025).

Experiments:
Human BLT1 = conditions: high affinity receptor; ref. [12]; cited from earlier work
Human BLT2 = conditions: cited from earlier work
[1] = test system: K/BxN serum-transfer arthritis in C57BL/6 mice; test: K/BxN serum transfer arthritis model, prophylactic (Example 1); assay type: in vivo, mouse (C57BL/6); conditions: 50 mg/kg orally once daily, day 0 to day 14
From the text: The K/BxN serum-transfer arthritis model was used to test whether development of arthritis could be prevented by Coversin. This model is a well-known murine model in which the immunological mechanisms occurring in rheumatoid arthritis (RA) are induced by transferring serum from arthritic transgenic K/BxN mice to naive mice. In the absence of treatment arthritic symptoms occur a few days later. This model is recognised to be highly relevant for RA, especially for the preclinical screening of new therapeutic targets for RA and perhaps other forms of inflammatory arthritis.
(§1) Experimental RA was induced using the protocol described by. Five mice were tested in each treatment group.
(§2) On day 0 C57BL/6 mice were assessed for clinical score and paw thickness using standard protocols. All mice received an injection of K/BxN serum on day 0 and on day 2. Each treatment was administered every day from day 0 to day 14. On days where serum was also injected (day 0 and day 2) drug was administered immediately after the serum injection. Clinical score and paw thickness were measured every other day.
Treatment groups were as follows: • Group 1: PBS (vehicle, subcutaneous, q24h) • Group 2: Treatment (Coversin 5 mg/kg subcutaneous, q12h) • Group 3: Treatment (Zileuton 50 mg/kg orally once daily) • Group 4: Treatment (PAS-Coversin 20 mg/kg subcutaneous, once daily)

[2] = test system: K/BxN serum-transfer arthritis in C57BL/6 mice; test: K/BxN serum transfer arthritis model, treatment of established disease (Example 2); assay type: in vivo, mouse (C57BL/6); conditions: 50 mg/kg orally once daily, day 4 to day 14
Experimental: The K/BxN serum-transfer arthritis (STA) model was used to test whether established arthritic disease could be ameliorated by Coversin.
as §1
as §2, with “day 2. The treatment was” for “day 2. Each treatment was”, “from day 4 to day” for “from day 0 to day”
Treatment groups were as follows: • Group 1: PBS (vehicle) • Group 2: Treatment (PAS-L Coversin 20 mg/kg subcutaneous once daily) • Group 3: Treatment (Zileuton 50 mg/kg orally once daily) • Group 4: Treatment (PAS-Coversin 20 mg/kg subcutaneous once daily)

SMILES	Kd (Human BLT1)	lower affinity for LTB4 than BLT1 (Human BLT2; BLT2 compared with BLT1)	Kd (Human BLT2; human BLT2)	development of arthritis [1]	day of maximum clinical score [2]
CCCCC/C=C\C[C@@H](O)/C=C/C=C/C=C\[C@@H](O)CCCC(=O)O [LTB4, Leukotriene B4]	0.39 to 1.5 nM	20 fold	23 nM		
CC(c1cc2ccccc2s1)N(O)C(N)=O (centres unmarked) [Zileuton, N-[1-(1-benzothien-2-yl)ethyl]-N-hydroxyurea]				partially ameliorates the development of arthritis	6 days
